System: ML-2
Assay: Proteome analysis (LC-MS/MS)
Format: cell-based, human
Details: ML-2, 25% GI50, 12 h
Protocol: After cooling down, lysates were incubated at 25 °C with 10 units of DNAse (Benzonase, Merk) and sonicated for 15 min in a Bioruptor for DNA shearing. Protein concentration was determined using microBCA, using BSA as standard. […] LysC, Wako). […] Peptides (500 μg) were labeled with Thermo Scientific […] Isobaric reagents for 1 h at 25 C. […] The final mixture was desalted using a 500 mg Sep-Pak C18t cartridge (Waters) and dried prior to high pH reverse phase HPLC pre-fractionation. Labeled peptides were fractionated offline through a high pH reverse phase chromatography using an Ultimate 3000 HPLC system equipped with a sample collector. Briefly, peptides were dissolved in 1200 μL of Buffer A (10 mM NH4OH) and loaded onto a XBridge BEH130 C18 column (3.5 μm, 250 mm length and 3.5 mm ID, Waters). […] One-minute fractions (500 μL) from minute 15 to 65 were collected and neutralized with 10% formic acid. […] Pooled fractions were snap-frozen and lyophilized. LC-MS/MS was done by coupling an UltiMate 3000 RSLCnano LC system to an Orbitrap Exploris 480 mass spectrometer (Thermo Fisher Scientific). […] The mass spectrometer was operated in a data-dependent mode, with an automatic switch between MS and MS/MS scans using a top 15 method. (Intensity threshold ≥ 1e4, dynamic exclusion of 20 sec and excluding charges unassigned, +1 and ≥ +7). MS spectra were acquired from 350 to 1500 m/z with a resolution of 60,000 FMHW (200 m/z). Ion peptides were isolated using a 0.7 Th window and fragmented using higher-energy collisional dissociation (HCD) with a normalized collision energy NCE of 36. MS/MS spectra were acquired with a fixed first mass of 120 m/z and a resolution of 45,000 FMHW (200 m/z). […] For total protein analysis, raw files were processed with MaxQuant (v 2.4.9.0) using the standard settings against the same protein database. […] Briefly, proteins/sites with less than eighteen valid values were filtered out. Then, a global normalization of log2-transformed intensities across samples was performed using the LOESS function. Differential analysis was done using the empirical Bayes statistics Limma. […] The FDR was estimated to be below 2% by Benjamini-Hochberg.

SMILES | proteins significantly regulated, of 8342 quantified [%]
COc1cc2nc(-c3ccc(C)o3)cc(NCC3CCN(c4ncc(C(=O)NO)cn4)CC3)c2cc1OC [CM-444, 2-[4-[[[6,7-dimethoxy-2-(5-methyl-2-furyl)-4-quinolyl]amino]methyl]-1-piperidyl]pyrimidine-5-carbohydroxamic acid] | 9.5
COc1cc2nc(-c3cc(C)oc3C)cc(NCC3CCN(c4ncc(C(=O)NO)cn4)CC3)c2cc1OC [CM-1758, 2-[4-[[[2-(2,5-dimethyl-3-furyl)-6,7-dimethoxy-4-quinolyl]amino]methyl] -1-piperidyl]pyrimidine-5-carbohydroxamic acid] | 8.8
Cc1[nH]c2ccccc2c1CCNCc1ccc(/C=C/C(=O)NO)cc1 [Panobinostat, reference compound] | 5.8
O=C(CCCCCCC(=O)Nc1ccccc1)NO [Vorinostat, reference compound] | 2.7
